Measurements published in patent publication US11091447B2, “UBE2K modulators and methods for their use” (Berg LLC, priority 2020, dated 2021).

Key:
[1] = system: MIA PaCa-2 cells; test: Cellular viability assay (Cell Titer Fluor); type: cell-based; details: 72 hours incubation
Experimental: Cell viability were performed using the Cell Titer Fluor™ Assays (Promega G6080). MIA PaCa-2 cells are grown in DMEM media with 10% FBS, 1% Pen/Strep/Amphotericin B. Cells are trypsinized and counted using the Nexcelom cellometer. 5,000 cells/100 μl are plated per well in Greiner black/clear 96-well plates. Cells should be within 10 passages of stock vial for use in workflow. Three distinct lineages of these cells are cultured in parallel for multiple passages and 5 full plates of each lineage are seeded for one run. Small molecule compounds are provided as 100 mM stock solutions in DMSO. Dilution series plates are prepared using 1:3 dilution to achieve a 7 point concentration on a half log scale. After addition of compounds, cells are incubated 37° C., 5% CO2 for 72 hours.
For each test compound condition, triplicate technical replicates are used. For each reference compound, duplicate technical replicates are used. At the end of the 72-hour incubation, spent media is discarded. Then, 100 μl of GF-AFC diluted in DMEM (serum and phenol red-free) is added at 1:2000 concentration (5 μl/10 ml). Cells are incubated with reaction buffer for 1 h at 37° C. Fluorescence is then read on the plate reader with excitation wavelength of 390 nm and emission wavelength of 505 nm. All raw data are analyzed on Microsoft Excel 2010 and normalized to the DMSO vehicle control. Relative results are copied into GraphPad Prism for non-linear regression analysis and determination of IC50 and other dose curve parameters (min, max, Hill slope, etc.) using the log (inhibitor) vs. response equation. Values are as follows: A represents an IC50 of <[…], B represents an IC50 of 1 mM to 10 mM, C represents an IC50 of >10 mM.

[2] = system: K-562 tumor grafts; test: Tumor growth inhibition in K-562 murine xenograft model; type: in vivo, Mouse (Mus musculus); details: bid., p.o., K-562 xenograft, SCID Bg mice
Experimental: K-562 cancer cell line sourced from American Type Culture Collection (ATCC), USA. Cells were grown in IMDM medium (Sigma, Cat #30-2005) supplemented with 10% FBS (Invitrogen, Cat #10438-026), and 1% penicillin streptomycin (Invitrogen, Cat #15140-122). To establish xenograft, the cells were harvested by trypsinization when they reach around 70 to 80% confluence and 5 million K-562 cells were suspended in 200 μL of serum-free medium and mixed at 1:1 ratio with matrigel before implanting subcutaneously into the dorsal right flank of SCID Bg mice using a 1 mL BD syringe attached to a 24-gauge needle.
K-562 tumor grafts were measured after 10 days of cell inoculation once they became palpable. When the average tumor volume reached around 85 mm^3, animals were dosed after randomization into different treatment groups keeping tumor volume and number of animals in such a way so that the average tumor volume of each group remained same across the groups.
Compounds were formulated in 0.5% CMC+0.1% Tween 80 and given for 12 consecutive days BID with 8 hour gaps.

Row | SMILES | IC50 ([1]; Homo sapiens, MIA PaCa-2, 72 h) | other results
1 | COc1ccc(F)cc1-c1nc(CNC(=O)c2cc(F)ccc2OC(F)(F)F)n[nH]1 [Compound 133] | < 1000 nM | % Tumor Growth Inhibition (TGI) on day 3 ([2]; 25 mg/kg/dose): 43%; % Tumor Growth Inhibition (TGI) on day 5 ([2]; 25 mg/kg/dose): 37%; % Tumor Growth Inhibition (TGI) on day 8 ([2]; 25 mg/kg/dose): 48%; % Tumor Growth Inhibition (TGI) on day 10 ([2]; 25 mg/kg/dose): 45%; % Tumor Growth Inhibition (TGI) on day 12 ([2]; 25 mg/kg/dose): 43%; % Tumor Growth Inhibition (TGI) on day 3 ([2]; 75 mg/kg/dose): 47%; % Tumor Growth Inhibition (TGI) on day 5 ([2]; 75 mg/kg/dose): 56%; % Tumor Growth Inhibition (TGI) on day 8 ([2]; 75 mg/kg/dose): 61%; % Tumor Growth Inhibition (TGI) on day 10 ([2]; 75 mg/kg/dose): 60%; % Tumor Growth Inhibition (TGI) on day 12 ([2]; 75 mg/kg/dose): 64%
2 | COc1ccncc1-c1cc(CNC(=O)c2ccccc2OC(F)(F)F)n[nH]1 [Compound 33] | 1000 to 10000 nM | 
3 | O=C(NCc1n[nH]c(-c2cccs2)n1)c1nccnc1N1CC(F)(F)C1 [Compound 86] | > 10000 nM | 
4 | O=C(NCc1cc(-c2cccs2)[nH]n1)c1ccc(O)cc1C(F)(F)F [Compound 13] | > 10000 nM | 
5 | O=C(NCc1n[nH]c(-c2cccs2)n1)c1nccnc1N1CCCC(F)(F)C1 [Compound 90] | > 10000 nM | 
6 | CC(C)Oc1ccc(F)cc1-c1cc(CNC(=O)c2ccccc2OC(F)(F)F)n[nH]1 [Compound 116] | > 10000 nM | 
7 | COc1ccc(F)cc1-c1nc(CNC(=O)c2ccccc2OC(F)F)n[nH]1 [Compound 128] | < 1000 nM | 
8 | Cc1sccc1-c1cc(CNC(=O)c2ccccc2OC(F)(F)F)n[nH]1 [Compound 17] | > 10000 nM | 
9 | O=C(NCc1cc(-c2cccs2)[nH]n1)c1ccccc1N1CCC(F)(F)CC1 [Compound 65] | < 1000 nM | 
10 | O=C(NCc1cc(-c2cccc3cn[nH]c23)[nH]n1)c1ccccc1OC(F)(F)F [Compound 29] | > 10000 nM | 
11 | CCOc1ccc(F)cc1-c1cc(CNC(=O)c2cc(F)ccc2N2CCCCC2)n[nH]1 [Compound 99] | < 1000 nM | 
12 | COc1ccc(F)cc1-c1nc(CNC(=O)c2ccc3c(c2)OC(F)(F)O3)n[nH]1 [Compound 119] | 1000 to 10000 nM | 
13 | O=C(NCc1cc(-c2cc(F)ccc2O)[nH]n1)c1ccccc1OC(F)(F)F [Compound 52] |  | IC50 [1]: > 10000 nM
14 | O=C(NCc1cc(-c2ccn[nH]2)[nH]n1)c1ccccc1OC(F)(F)F [Compound 25] | > 10000 nM | 
15 | COc1ccc(Cl)cc1-c1cc(CNC(=O)c2ccccc2OC(F)(F)F)n[nH]1 [Compound 48] | 1000 to 10000 nM | 
16 | CN1CCN(c2ccccc2C(=O)NCc2cc(-c3cccs3)[nH]n2)CC1 [Compound 71] | 1000 to 10000 nM | 
17 | O=C(NCc1n[nH]c(-c2cccs2)n1)c1ccccc1OC(F)F [Compound 15] | > 10000 nM | 
18 | O=C(NCc1n[nH]c(-c2cccc(O)c2O)n1)c1ccccc1OC(F)F [Compound 61, 2-(Difluoromethoxy)-N-((5-(2,3-dihydroxyphenyl)-1H-1,2,4-triazol-3-yl)methyl) benzamide] | 1000 to 10000 nM | 
19 | O=C(NCc1cc(-c2cccs2)[nH]n1)c1cc(C(F)(F)F)ccc1N1CCCC(F)(F)C1 [Compound 78] | < 1000 nM | 
20 | COc1ccc(O)cc1-c1nc(CNC(=O)c2ccccc2OC(F)F)n[nH]1 [Compound 63, 2-(Difluoromethoxy)-N-((5-(5-hydroxy-2-methoxyphenyl)-1H-1,2,4-triazol-3-yl)methyl) benzamide] | 1000 to 10000 nM | 
21 | COc1ccc(F)cc1-c1nc(CNC(=O)c2cccnc2OC(F)F)n[nH]1 [Compound 143, 2-(difluoromethoxy)-N-((5-(5-fluoro-2-methoxyphenyl)-1H-1,2,4-triazol-3-yl)methyl) nicotinamide] | < 1000 nM | 
22 | COc1ccc(F)cc1-c1nc(CNC(=O)c2cnccc2OC(F)F)n[nH]1 [Compound 147] | 1000 to 10000 nM | 
23 | O=C(NCc1cc(-c2ccccc2O)[nH]n1)c1ccccc1OC(F)(F)F [Compound 53] | < 1000 nM | 
24 | COc1ccccc1-c1nc(C2(NC(=O)c3ccccc3OC(F)F)CC2)n[nH]1 [Compound 118, 2-(difluoromethoxy)-N-(1-(5-(2-methoxyphenyl)-1H-1,2,4-triazol-3-yl)cyclopropyl) benzamide] | 1000 to 10000 nM | 
25 | COc1ccc(OC)c(-c2cc(CNC(=O)c3ccccc3OC(F)(F)F)n[nH]2)c1 [Compound 39] | > 10000 nM | 
26 | O=C(NCc1n[nH]c(-c2cccs2)n1)c1ccccc1N1CCC(F)(F)C1 [Compound 75] | < 1000 nM | 
27 | COc1ccccc1-c1cc(CNC(=O)c2cc(F)ccc2N2CCCCC2)n[nH]1 [Compound 100] | < 1000 nM | 
28 | COc1ccccc1-c1nc(S(=O)(=O)NC(=O)c2ccccc2OC(F)F)n[nH]1 [Compound 124, 2-(difluoromethoxy)-N-((5-(2-methoxyphenyl)-1H-1,2,4-triazol-3-yl)sulfonyl) benzamide] | 1000 to 10000 nM | 

Now from value to compound, other results behind:

Row | IC50 ([1]; Homo sapiens, MIA PaCa-2, 72 h) | SMILES | other results
29 | < 1000 nM | COc1ccc(F)cc1-c1nc(CNC(=O)c2cccc(F)c2OC(F)F)n[nH]1 [Compound 135, 2-(difluoromethoxy)-3-fluoro-N-((5-(5-fluoro-2-methoxyphenyl)-1H-1,2,4-triazol-3-yl)methyl) benzamide] | 
30 | > 10000 nM | O=C(NCc1n[nH]c(-c2cccs2)n1)c1ccccc1OC(F)(F)F [Compound 14] | 
31 | < 1000 nM | COc1ccccc1-c1nc(CNC(=O)c2cc(F)ccc2OC(F)(F)F)n[nH]1 [Compound 134] | 
32 | < 1000 nM | CC(C)Oc1ccc(F)cc1-c1cc(CNC(=O)c2cc(F)ccc2N2CCCCC2)n[nH]1 [Compound 93] | 
33 | < 1000 nM | COc1ccccc1-c1cc(CNC(=O)c2ccccc2N2CCCCC2)n[nH]1 [Compound 102, N-((5-(2-methoxyphenyl)-1H-pyrazol-3-yl)methyl)-2-(piperidin-1-yl) benzamide] | 
34 | < 1000 nM | COc1ccccc1-c1nc(CNC(=O)c2cc(C#N)ccc2OC(F)F)n[nH]1 [Compound 140] | 
35 | > 10000 nM | COc1ccccc1-c1cc(S(=O)(=O)NC(=O)c2ccccc2OC(F)F)n[nH]1 [Compound 121, 2-(difluoromethoxy)-N-((5-(2-methoxyphenyl)-1H-pyrazol-3-yl)sulfonyl) benzamide] | 
36 | > 10000 nM | COc1ccccc1-c1cc(S(=O)(=O)NC(=O)c2ccccc2OC(F)(F)F)n[nH]1 [Compound 122, N-[[5-(2-methoxyphenyl)-1H-pyrazol-3-yl]sulfonyl]-2-(trifluoromethoxy)benzamide] | 
37 | 1000 to 10000 nM | Cc1cccc(C(=O)NCc2cc(-c3cccs3)[nH]n2)c1N1CCC(F)(F)C1 [Compound 97] | 
38 | < 1000 nM | O=C(NCc1cc(-c2cccs2)[nH]n1)c1cc(F)ccc1N1CCCC1 [Compound 94] | 
39 | < 1000 nM | O=C(NCc1cc(-c2cccs2)[nH]n1)c1ccccc1N1CCC(F)(F)C1 [Compound 66] | 
40 | < 1000 nM | N#Cc1ccc(N2CCCC(F)(F)C2)c(C(=O)NCc2cc(-c3cccs3)[nH]n2)c1 [Compound 85] | 
41 | > 10000 nM | O=C(NCc1cc(-c2cccc(O)c2O)[nH]n1)c1ccccc1OC(F)(F)F [Compound 43] | 
42 | 1000 to 10000 nM | COc1ccccc1-c1nc(CNC(=O)c2ccc3c(c2)OC(F)(F)O3)n[nH]1 [Compound 120] | 
43 | < 1000 nM | O=C(NCc1cc(-c2cc(F)ccc2O)[nH]n1)c1cc(F)ccc1N1CCCCC1 [Compound 91] | 
44 | < 1000 nM | O=C(NCc1cc(-c2cccs2)[nH]n1)c1ccccc1N1CCCCCC1 [Compound 103] | 
45 | < 1000 nM | CCOc1ccc(F)cc1-c1cc(CNC(=O)c2cc(F)ccc2N2CCCC2)n[nH]1 [Compound 92] | 
46 | 1000 to 10000 nM | O=C(NCc1n[nH]c(-c2cc(O)ccc2O)n1)c1ccccc1OC(F)F [Compound 64] | 
47 | 1000 to 10000 nM | O=C(NCc1cc(-c2cccs2)[nH]n1)c1cccc(C(F)(F)F)c1N1CCCCC1 [Compound 79] | 
48 | > 10000 nM | Cc1cn[nH]c1-c1cc(CNC(=O)c2ccccc2OC(F)(F)F)n[nH]1 [Compound 24] | 
49 | < 1000 nM | COc1ccc(F)cc1-c1nc(CNC(=O)c2cc(C#N)ccc2OC(F)F)n[nH]1 [Compound 139] | 
